From patent US8802700B2 (Vertex Pharmaceuticals Incorporated, priority 2010, dated 2014) come the findings set out here.

In one assay the target is T1, ΔF508-CFTR (Homo sapiens, UniProt P13569, DEL508-508).
T1 construct: expressed in transfected cells
T1 sequence (P13569 with tags, fused parts or gaps DEL508-508): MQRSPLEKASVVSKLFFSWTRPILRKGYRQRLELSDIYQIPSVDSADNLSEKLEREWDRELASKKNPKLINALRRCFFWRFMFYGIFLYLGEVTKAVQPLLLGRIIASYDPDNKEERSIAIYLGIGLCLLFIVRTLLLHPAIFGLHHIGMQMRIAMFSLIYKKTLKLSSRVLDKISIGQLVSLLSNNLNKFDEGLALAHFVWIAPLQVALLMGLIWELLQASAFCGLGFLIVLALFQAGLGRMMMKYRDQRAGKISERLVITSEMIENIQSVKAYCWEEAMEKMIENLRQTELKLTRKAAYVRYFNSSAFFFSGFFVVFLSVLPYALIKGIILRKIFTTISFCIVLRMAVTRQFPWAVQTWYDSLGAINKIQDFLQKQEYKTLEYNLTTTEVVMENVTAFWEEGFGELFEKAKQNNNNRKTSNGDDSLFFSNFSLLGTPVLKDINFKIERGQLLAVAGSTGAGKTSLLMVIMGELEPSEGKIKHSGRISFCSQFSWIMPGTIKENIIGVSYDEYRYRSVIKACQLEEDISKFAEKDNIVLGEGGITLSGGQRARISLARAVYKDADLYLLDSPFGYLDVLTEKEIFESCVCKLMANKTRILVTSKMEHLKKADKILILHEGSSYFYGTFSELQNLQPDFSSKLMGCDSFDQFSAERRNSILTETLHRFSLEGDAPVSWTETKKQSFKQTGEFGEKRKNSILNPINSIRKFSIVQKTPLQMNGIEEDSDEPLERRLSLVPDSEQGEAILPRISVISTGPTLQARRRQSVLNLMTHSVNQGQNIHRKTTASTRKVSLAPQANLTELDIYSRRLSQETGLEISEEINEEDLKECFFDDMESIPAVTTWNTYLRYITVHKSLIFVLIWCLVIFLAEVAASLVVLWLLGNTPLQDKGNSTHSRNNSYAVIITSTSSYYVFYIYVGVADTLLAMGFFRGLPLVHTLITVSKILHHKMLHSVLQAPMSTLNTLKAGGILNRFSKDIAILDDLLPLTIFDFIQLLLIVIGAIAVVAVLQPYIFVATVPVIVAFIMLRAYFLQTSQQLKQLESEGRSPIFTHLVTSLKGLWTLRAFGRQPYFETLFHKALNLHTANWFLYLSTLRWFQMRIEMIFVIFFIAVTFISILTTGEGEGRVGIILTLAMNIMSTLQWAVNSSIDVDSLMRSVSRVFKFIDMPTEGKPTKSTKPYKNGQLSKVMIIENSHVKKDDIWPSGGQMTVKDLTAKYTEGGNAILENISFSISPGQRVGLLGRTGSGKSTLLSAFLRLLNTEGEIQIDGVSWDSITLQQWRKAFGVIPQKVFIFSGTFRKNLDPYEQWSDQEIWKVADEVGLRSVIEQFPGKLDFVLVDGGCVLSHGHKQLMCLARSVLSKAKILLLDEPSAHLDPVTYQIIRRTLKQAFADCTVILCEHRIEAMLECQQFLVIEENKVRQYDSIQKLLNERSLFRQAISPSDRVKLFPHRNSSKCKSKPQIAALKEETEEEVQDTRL
Description: Membrane potential optical assay (FRET voltage-sensor dyes, VIPR), identification of potentiator compounds. The format is cell-based. The note with it: Table 3; assay not given. In a few lines: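 Potentiator screen measured membrane potential via FRET between CC2-DMPE donor and DiSBAC2(3), read on VIPR II. Compound went in with the first addition of chloride-free gluconate bath; cells were ΔF508-CFTR-expressing NIH3T3 mouse fibroblasts, temperature-corrected at 27 °C for 24 h.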
Take `O=C(Nc1ccccc1-c1ccoc1)c1c[nH]c2ccccc2c1=O` [Compound 123, N-[2-(3-furyl)phenyl]-4-oxo-1H-quinoline-3-carboxamide]: the EC50 was less than 10 µM.

On to `O=C(Nc1ccccc1-c1cc(F)cc(F)c1)c1c[nH]c2ccccc2c1=O` [Compound 138, N-[2-(3,5-difluorophenyl)phenyl]-4-oxo-1H-quinoline-3-carboxamide], for which the EC50 is less than 10 µM. Regarding `CC(=O)Nc1ccc(C(C)C)c(NC(=O)c2c[nH]c3ccccc3c2=O)c1` [Compound 243, N-(5-acetylamino-2-isopropyl-phenyl)-4-oxo-1H-quinoline-3-carboxamide], the 50% effective concentration (EC50) lay within 10 to 25 µM.

With `O=C(Nc1cccnc1Oc1ccc(F)cc1F)c1c[nH]c2ccccc2c1=O` [Compound 385, N-[2-(2,4-difluorophenoxy)-3-pyridyl]-4-oxo-1H-quinoline-3-carboxamide], the 50% effective concentration (EC50) was less than 10 µM. With `O=C(Nc1ccc(C2CCCCC2)cc1)c1c[nH]c2ccccc2c1=O` [Compound 140, N-(4-cyclohexylphenyl)-4-oxo-1H-quinoline-3-carboxamide], the EC50 is less than 10 µM. Take `N#CCc1ccc(-c2ccccc2NC(=O)c2c[nH]c3ccccc3c2=O)cc1` [Compound 333, N-[2-[4-(cyanomethyl)phenyl]phenyl]-4-oxo-1H-quinoline-3-carboxamide]: the concentration giving a half-maximal response (EC50) is less than 10 µM. On to `CCCc1ccc(NC(C)=O)cc1NC(=O)c1c[nH]c2ccccc2c1=O` [Compound 232, N-(5-acetylamino-2-propyl-phenyl)-4-oxo-1H-quinoline-3-carboxamide], for which the EC50 fell in the range of 10 to 25 µM.

Still in this assay, the particulars now being: Table 3; assay not given; read-out: % Activity (% Efficacy, relative efficacy).
Regarding `COc1ccc(Cl)cc1-c1cc2cc[nH]c2cc1NC(=O)c1c[nH]c2ccccc2c1=O` [Compound 1, N-[5-(5-chloro-2-methoxy-phenyl)-1H-indol-6-yl]-4-oxo-1H-quinoline-3-carboxamide], the Emax fell in the range of 25 to 100%. Take `COc1ccc(-c2ccccc2NC(=O)c2c[nH]c3ccccc3c2=O)cc1OC` [Compound 436, N-[2-(3,4-dimethoxyphenyl)phenyl]-4-oxo-1H-quinoline-3-carboxamide]: the Emax was in the range of 25 to 100%.

With `O=C(Nc1ccccc1-c1ccoc1)c1c[nH]c2ccccc2c1=O` [Compound 123, N-[2-(3-furyl)phenyl]-4-oxo-1H-quinoline-3-carboxamide], the Emax was 25 to 100%.

As for `O=C(Nc1ccccc1-c1cc(F)cc(F)c1)c1c[nH]c2ccccc2c1=O` [Compound 138, N-[2-(3,5-difluorophenyl)phenyl]-4-oxo-1H-quinoline-3-carboxamide], the Emax lay in the range of 25 to 100%. For `Cc1cccc2[nH]cc(C(=O)Nc3ccc(OC4CCCC4)cc3C(F)(F)F)c(=O)c12` [Compound 595, N-[4-cyclopentoxy-2-(trifluoromethyl)phenyl]-5-methyl-4-oxo-1H-quinoline-3-carboxamide], the Emax fell in the range of 25 to 100%. For the compound `CCOc1ccc(-c2ccccc2NC(=O)c2c[nH]c3ccccc3c2=O)cc1` [Compound 348, N-[2-(4-ethoxyphenyl)phenyl]-4-oxo-1H-quinoline-3-carboxamide], the Emax fell in the range of 25 to 100%. In the case of `CC(C)(C)c1ccc(NC(=O)c2c[nH]c3ccccc3c2=O)cc1C#N` [Compound 13, N-(3-cyano-4-tert-butyl-phenyl)-4-oxo-1H-quinoline-3-carboxamide], the Emax fell in the range of 25 to 100%. As to `CCCOC(=O)NCC(C)(C)c1ccc(NC(=O)c2c[nH]c3ccccc3c2=O)cc1` [Compound 416, [2-methyl-2-[4-[(4-oxo-1H-quinolin-3-yl)carbonylamino]phenyl]-propyl]aminoformic acid propyl ester], the Emax lay within 25 to 100%. `CC(=O)Nc1ccc(C(C)C)c(NC(=O)c2c[nH]c3ccccc3c2=O)c1` [Compound 243, N-(5-acetylamino-2-isopropyl-phenyl)-4-oxo-1H-quinoline-3-carboxamide]: the Emax lay within 25 to 100%. `CC(C)(C)c1cccc(NC(=O)c2c[nH]c3ccccc3c2=O)c1` [Compound 602, 4-oxo-N-(3-tert-butylphenyl)-1H-quinoline-3-carboxamide]: the Emax lay in the range of 25 to 100%. Still for that read-out and setting: the value for `O=C(Nc1cccnc1Oc1ccc(F)cc1F)c1c[nH]c2ccccc2c1=O` [Compound 385, N-[2-(2,4-difluorophenoxy)-3-pyridyl]-4-oxo-1H-quinoline-3-carboxamide] was 25 to 100%; that for `Cc1ccc(-c2ccccc2)cc1NC(=O)c1c[nH]c2ccccc2c1=O` [Compound 454, N-(2-methyl-5-phenyl-phenyl)-4-oxo-1H-quinoline-3-carboxamide] was less than 25%; that for `CC(=O)Nc1ccc(C(C)(C)C)c(NC(=O)c2c[nH]c3ccccc3c2=O)c1` [Compound 316, N-(5-acetylamino-2-tert-butyl-phenyl)-4-oxo-1H-quinoline-3-carboxamide] was 25 to 100%. For `O=C(Nc1ccc(-c2ccccc2)cn1)c1c[nH]c2ccccc2c1=O` [Compound 402, 4-oxo-N-(5-phenyl-2-pyridyl)-1H-quinoline-3-carboxamide], the Emax was less than 25%. For `CC(C)(C)OC(=O)Nc1ccc(NC(=O)c2c[nH]c3ccccc3c2=O)c(C(F)(F)F)c1` [Compound 600, tert-butyl [[4-[(4-oxo-1H-quinolin-3-yl)carbonylamino]-3-(trifluoromethyl)phenyl]amino]formate], the Emax lay in the range of 25 to 100%. On the same count and under the same terms, the value for `O=C(Nc1cccc2c1Cc1ccccc1-2)c1c[nH]c2ccccc2c1=O` [Compound 18, N-(9H-fluoren-1-yl)-4-oxo-1H-quinoline-3-carboxamide] was 25 to 100%. As to `O=C(Nc1ccccc1-c1cccc(C(F)(F)F)c1)c1c[nH]c2ccccc2c1=O` [Compound 278, 4-oxo-N-[2-[3-(trifluoromethyl)phenyl]phenyl]-1H-quinoline-3-carboxamide], the Emax lay in the range of 25 to 100%. For `CCc1ccc(NC(=O)OC)cc1NC(=O)c1c[nH]c2ccccc2c1=O` [Compound 249, [4-ethyl-3-[(4-oxo-1H-quinolin-3-yl)carbonylamino]phenyl]aminoformic acid methyl ester], the Emax was in the range of 25 to 100%. For the compound `Cc1ccc(NC(=O)c2c[nH]c3ccccc3c2=O)nc1` [Compound 195, N-(5-methyl-2-pyridyl)-4-oxo-1H-quinoline-3-carboxamide], the Emax was less than 25%. With `CCc1ccccc1NC(=O)c1c[nH]c2ccccc2c1=O` [Compound 72, N-(2-ethylphenyl)-4-oxo-1H-quinoline-3-carboxamide], the Emax is 25 to 100%. The same measure, in the same setting: the value for `CC(C)(C)c1ccc(NC(=O)c2c[nH]c3ccccc3c2=O)cc1` [Compound 448, 4-oxo-N-(4-tert-butylphenyl)-1H-quinoline-3-carboxamide] was 25 to 100%. For the compound `O=C(Nc1ccc(C2CCCCC2)cc1)c1c[nH]c2ccccc2c1=O` [Compound 140, N-(4-cyclohexylphenyl)-4-oxo-1H-quinoline-3-carboxamide], the Emax was 25 to 100%. For `COC(=O)c1ccc(-c2ccccc2NC(=O)c2c[nH]c3ccccc3c2=O)cc1` [Compound 166, 4-[2-[(4-oxo-1H-quinolin-3-yl)carbonylamino]phenyl]benzoic acid methyl ester], the Emax was in the range of 25 to 100%. The same measure, in the same setting: the value for `COc1ccc2c(=O)c(C(=O)Nc3ccc(N4CCC[C@@H]4C)cc3C(F)(F)F)c[nH]c2c1` [Compound 642, (S)-7-methoxy-N-(4-(2-methylpyrrolidin-1-yl)-2-(trifluoromethyl)phenyl)-4-oxo-1,4-dihydroquinoline-3-carboxamide] was 25 to 100%; that for `N#CCc1ccc(-c2ccccc2NC(=O)c2c[nH]c3ccccc3c2=O)cc1` [Compound 333, N-[2-[4-(cyanomethyl)phenyl]phenyl]-4-oxo-1H-quinoline-3-carboxamide] was 25 to 100%; that for `N#CCc1ccccc1NC(=O)c1c[nH]c2ccccc2c1=O` [Compound 308, N-[2-(cyanomethyl)phenyl]-4-oxo-1H-quinoline-3-carboxamide] was 25 to 100%.

With `O=C(Nc1ccc2c(c1)OC(F)(F)O2)c1c[nH]c2ccccc2c1=O` [Compound 66, N-(2,2-difluorobenzo[1,3]dioxol-5-yl)-4-oxo-1H-quinoline-3-carboxamide], the Emax lay in the range of 25 to 100%. On to `CC(=O)c1ccc2c(=O)c(C(=O)Nc3cc(O)c(C(C)(C)C)cc3C(C)(C)C)c[nH]c2c1` [Compound 604, 7-acetyl-N-(5-hydroxy-2,4-ditert-butyl-phenyl)-4-oxo-1H-quinoline-3-carboxamide], for which the Emax fell in the range of 25 to 100%. Consider `CC(CO)(CO)c1ccc(NC(=O)c2c[nH]c3ccc(F)cc3c2=O)cc1` [Compound 627, 6-fluoro-N-[4-[2-hydroxy-1-(hydroxymethyl)-1-methyl-ethyl]phenyl]-4-oxo-1H-quinoline-3-carboxamide], for which the Emax is less than 25%. In the case of `O=C(Nc1ccc2c3c([nH]c2c1)CCCC3)c1c[nH]c2ccccc2c1=O` [Compound 244, 4-oxo-N-(6,7,8,9-tetrahydro-5H-carbazol-2-yl)-1H-quinoline-3-carboxamide], the Emax was in the range of 25 to 100%. Regarding `COc1ccc(C)cc1NC(=O)c1c[nH]c2ccccc2c1=O` [Compound 120, N-(2-methoxy-5-methyl-phenyl)-4-oxo-1H-quinoline-3-carboxamide], the Emax is 25 to 100%.

For `O=C(Nc1cc(Cl)ccc1Oc1ccccc1)c1c[nH]c2ccccc2c1=O` [Compound 292, N-(5-chloro-2-phenoxy-phenyl)-4-oxo-1H-quinoline-3-carboxamide], the Emax lay in the range of 25 to 100%. With `Cc1ccc(C(F)(F)F)cc1NC(=O)c1c[nH]c2ccc(F)cc2c1=O` [Compound 678, 6-fluoro-N-[2-methyl-5-(trifluoromethyl)phenyl]-4-oxo-1H-quinoline-3-carboxamide], the Emax was 25 to 100%. Regarding `COc1ccc(Oc2ccc(C(F)(F)F)cc2NC(=O)c2c[nH]c3ccccc3c2=O)cc1` [Compound 205, N-[2-(4-methoxyphenoxy)-5-(trifluoromethyl)phenyl]-4-oxo-1H-quinoline-3-carboxamide], the Emax lay within 25 to 100%. Consider `CC1(C)CCNc2cc(NC(=O)c3c[nH]c4ccccc4c3=O)ccc21` [Compound 300, N-(4,4-Dimethyl-1,2,3,4-tetrahydroquinolin-7-yl)-4-oxo-1H-quinoline-3-carboxamide], for which the Emax was 25 to 100%. With `CN(C)[C@@H]1CCN(c2ccc(NC(=O)c3c[nH]c4ccccc4c3=O)c(C(F)(F)F)c2)C1` [Compound 534, (R)-N-(4-(3-(dimethylamino)pyrrolidin-1-yl)-2-(trifluoromethyl)phenyl)-4-oxo-1,4-dihydroquinoline-3-carboxamide], the Emax lay within 25 to 100%. For `CC1(C)CCOc2cc(NC(=O)c3c[nH]c4ccccc4c3=O)ccc21` [Compound 204, N-(4,4-dimethylchroman-7-yl)-4-oxo-1H-quinoline-3-carboxamide], the Emax was 25 to 100%.

On to `CC(C)(C)c1cc(F)c(NC(=O)c2c[nH]c3c(C#N)cccc3c2=O)cc1O` [Compound 519, 8-cyano-N-(2-fluoro-5-hydroxy-4-tert-butyl-phenyl)-4-oxo-1H-quinoline-3-carboxamide], for which the Emax lay in the range of 25 to 100%. With `CCCc1ccc(NC(C)=O)cc1NC(=O)c1c[nH]c2ccccc2c1=O` [Compound 232, N-(5-acetylamino-2-propyl-phenyl)-4-oxo-1H-quinoline-3-carboxamide], the Emax was 25 to 100%. In the case of `CC(C)(C)c1cc2cc[nH]c2cc1NC(=O)c1c[nH]c2ccc(O)cc2c1=O` [Compound 679, 6-hydroxy-4-oxo-N-(5-tert-butyl-1H-indol-6-yl)-1H-quinoline-3-carboxamide], the Emax was in the range of 25 to 100%.

As a reminder, the EC50 is the concentration at which the effect is half-maximal.
